Assay results taken from patent US5795882A, “Method of treating prostatic diseases using delayed and/or sustained release vitamin D formulations” (Bone Care International, Inc., priority 1996, dated 1998).

Legend:
[1] = Pharmacokinetics of 1α,25-(OH)2 D3 in vitamin D-deficient rats after oral dosing (Example 4); assay type: in vivo, rat; details: single oral dose, 2-48 h
Description: One group is killed 8 hours after dosing with the vehicle. […] The blood is collected and analyzed for 1α,25-(OH)2 D3 levels.

[2] = Blood level of 1α,25-(OH)2 D3 in vitamin D-deficient rats after oral dosing (Example 3); assay type: in vivo, rat; details: oral 0.25 μg/kg, 4 h
Description: Male weanling rats are fed a diet deficient in vitamin D and with normal calcium (0.47%). […] Four hours after administration, the rats are killed and their blood level of 1α,25-(OH)2 D3 is measured using a standard technique.

[3] = In vitro thermal conversion of 1α-hydroxyprevitamin D to 1α-hydroxyvitamin D; assay type: physicochemical; details: in ethanol, 37° C.
Description: A series of experiments were conducted which address the in vitro conversion of previtamin to vitamin for three 1α-hydroxyprevitamin D's: 1α-hydroxyprevitamin D2, 1α,24-dihydroxyprevitamin D2 and 1α-hydroxyprevitamin D3. Each 1α-hydroxyprevitamin D was dissolved in ethanol, incubated at 37° C. in a water bath, and samples taken at two-hour intervals. An analytical HPLC separation was performed on each sample to quantify the thermal conversion of the previtamin to the vitamin form. The data collected were normalized to account for the presence of any vitamin form in the initial formulation (≤10%). The results are presented in FIG. 1 which is a plot of % previtamin versus time in hours. Linear regression lines were generated for each previtamin.

[4] = Comparison of oral bioavailability in rachitic rats (Example 5); assay type: in vivo, rat; details: oral, 12 h
Description: Three-week-old rats were maintained on a vitamin D-deficient diet containing normal levels of calcium and phosphorus for 3-6 weeks until marked hypocalcemia was observed. […] A control group received only the vehicle. For all treatment groups, blood was obtained at 12 hours postdosing, and analyzed for serum levels of the vitamin form.

[5] = Equilibration of previtamin to vitamin form during binding incubation (HPLC); assay type: physicochemical; details: end of the VDR binding incubation, read-out: fraction equilibrated to the vitamin form

For `CC1=C(/C=C\C2=CCC[C@]3(C)[C@@H]([C@H](C)CCCC(C)(C)O)CC[C@@H]23)C[C@@H](O)C[C@@H]1O` [1α,25-(OH)2 preD3, 1α,25-dihydroxyprevitamin D3], the “1α,25-(OH)2 D3 serum levels” value [1] was “increased 1α,25-(OH)2 D3 serum levels”, the “time profile of serum 1α,25-(OH)2 D3 increase versus dosing with 1α,25-(OH)2 D3” value [1] was “more gradual and sustained for a greater duration” and the “blood level of 1α,25-(OH)2 D3 versus control” value [2] was “significantly elevated”. For the same compound, the half-life [3] was 17.7 h, the “oral bioavailability versus 1α,25-(OH)2 D3” value [4] was “greater bioavailability than the active form of the vitamin” and the degraded [5] was ~2%.
